From patent US10682371B2, “Small molecule conjugates specifically activated in tumor microenvironment for targeting and use thereof” (priority 2014, dated 2020)
Like-named read-outs stand apart in the source and are kept apart here.

Legend:
4T1 cells = assay: BALB/C mice model for tumor metastasis (4T1, lung metastases); assay type: in vivo; settings: IV every three days for 4 times, Paclitaxel 4 mg/kg
Protocol: (§1) 1) 4T1 cells were purchased from American type culture collection (ATCC) and identified according the specification provided by ATCC. Cells were cultivated in DMEM culture solution containing 10% fetal bovine serum at 37° C. and 5% CO2. The cells were passaged for every three days and cells within the 15th passage were used.
2) Production of tumor metastasis. 10^6 […] were subcutaneously injected to the back of the BALB/C mice. Mice were randomly grouped after the tumor grew to about 1.5 cm. The subcutaneous tumor was removed by surgery and drug treatment began. Mice were killed after anesthesia on day 27. The whole lung was taken out and put into Bouin's solution for staining. The number of the tumor metastasized to lung was counted with anatomical microscope.
(§2) The control group was administered by physiological saline. Drugs were administered once for every three days for 4 times.
as §2
According to the clinical application of B1, B2, B3 and B4, drugs were intravenously injected (IV). […] The control group was administered by physiological saline. Drugs were administered once for every three days for 4 times.
According to the clinical application of D1, D2, D3 and D4, drugs were intravenously injected (IV). […] The control group was administered by physiological saline. Drugs were administered once for every three days for 4 times.

D121 lung tumor cells = assay type: in vivo, C57 mice; settings: drugs weekly for 4 weeks
Procedure, shortened: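 Endpoint is tumor inhibition rate from tumor size (mm^3) after weekly drug treatment for 4 weeks, begun once s.c. tumors from 10^6 live D121 cells reached 0.3-0.4 cm. Before challenge, C57 mice received three i.p. doses of 5×10^5 irradiated D121 cells, two weeks apart, or saline.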

[1] = test system: tumor-derived immunosuppressive T cells (T reg: CD4+, CD25+, Foxp3+); CD8 T cells; assay: Immunological stimulation test in mice receiving tumor treatment (T reg, CD8 T cells); assay type: in vivo; settings: mice receiving tumor treatment
From the text: We further studied the immunological stimulation property of Legutaxel. […] On the contrary, the index for tumor-derived immunosuppressive T cells in treatment group by Legutaxel decreased due to targeted chemotherapy (see panels in FIGS. 3A and 3B).

tumor CD8+ T cells = assay type: in vivo, C57 mice; settings: CD8 positive cells in CD45 positive cells of tumor
Procedure, shortened: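 Tumour tissue homogenised and single cells filtered, washed, then stained 1 h at ambient temperature with CD45-PE and CD8-FITC antibodies. After washes in PBS with 1% FBS, flow cytometry gave the fraction of CD8⁺ cells among CD45⁺ leucocytes.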

[2] = test system: Human prostate cancer PC-3 cells / Panc-1 cells; assay: Tumor treatment in nude mice (PC-3 cells purchased, Panc-1 cells injected; Examples 22, 32, 42); assay type: in vivo; settings: nude mice, IV once weekly for four weeks, Paclitaxel 8 mg/kg
Protocol: as §1, with “Human prostate cancer PC-3” for “4T1”
2) Production of tumor. 5×10^6Panc-1 cells were subcutaneously injected to the back of the nude mice. Mice were randomly grouped after the tumor reached at least 100 mm^3. Then treatment began and the day on which the treatment began was day 1.
The control group was administered by physiological saline. Drugs were administered once weekly for four weeks.
According to the clinical application of B1, B2, B3 and B4, drugs were intravenously injected (IV). […] The control group was administered by physiological saline. Drugs were administered once weekly for four weeks.

[3] = 4T1, BALB/C mice, lung, day 27, S1′-S4′ 12 mg/kg
[4] = Table 28, BALB/C mice, 4T1, lung metastases day 27, A1-A4 12 mg/kg
[5] = D121 immunized C57 mice, Day 18 (Example 23)
[6] = Table 26, A1-A4 24 mg/kg, Day 10

Paclitaxel [reference compound]
Inhibitory rate on metastasis (4T1 cells; [3]): 5.9%
Number of metastasized tumor (4T1 cells; [3]): 128 ± 25
Inhibitory rate on metastasis (4T1 cells; [4]): 6.8%
Number of metastasized tumor (4T1 cells; [4]): 137 ± 32
Size of tumor (mm^3) Day 18 (D121 lung tumor cells; [5]): 1210.28 ± 375.46 mm^3
inhibitory rate on tumor % Day 18 (D121 lung tumor cells; [5]): 23.1%
inhibitory rate on tumor % Day 18 (D121 lung tumor cells; Table 27, immunized C57 mice, D121 lung tumor, Day 18): 20.47%
Index for tumor-derived immunosuppressive T cells (T reg: CD4+, CD25+, Foxp3+) [1]: greatly increased
CD8: CD45 (%) (tumor CD8+ T cells; D121 immunized C57 mice (Example 23)): 6.6%
CD8: CD45 (%) (tumor CD8+ T cells; Table 27, flow cytometry, immunized C57 mice, D121): 5.7%
Size of tumor (mm^3) Day 10 [2, 6]: 123.04 ± 125.3 mm^3
inhibitory rate on tumor Day 10 [2, 6]: 58.3%
Size of tumor (mm^3) Day 24 ([2]; Table 26, A1-A4 24 mg/kg): 252.49 ± 248.5 mm^3
inhibitory rate on tumor Day 24 ([2]; Table 26, A1-A4 24 mg/kg): 33.7%
inhibitory rate on tumor Day 10 ([2]; S1′-S4′ 24 mg/kg, Day 10): 7.5%
Size of tumor (mm^3) Day 24 ([2]; S1′-S4′ 24 mg/kg): 249.54 ± 95.46 mm^3
inhibitory rate on tumor Day 24 ([2]; S1′-S4′ 24 mg/kg): 27.9%
